Series [1] can be described thus: Particle size distribution by Malvern laser diffraction (Mastersizer S). It is filed as physicochemical. Particulars: average of two measurements. Here is the method: Many analytical tools are available to determine PSD. In the early development stage, the analysis of PSD was performed through microscopic and sieve analysis. Laser diffraction was chosen as the final analytical method for measuring the PSD. Because the large particles were of major concern, the important characteristics of the PSD were the d(0.9), which is the size, in microns, below which 90% of the particles by volume are found, and the d(0.1), which is the size, in microns, below which 10% of the particles by volume are found.
R(+)PAI mesylate samples before milling contain large, irregular, plate-shaped particles of various sizes (See FIG. 1). PSDs of four different batches were measured before milling and after milling. The PSDs were measured using Malvern Laser Diffraction, using the Mastersizer S model. Laser diffraction relies on the fact that diffraction angle of light is inversely proportional to particle size. Properties of particles are measured and interpreted as measurements of a sphere (a sphere being the only shape that can be described by one unique number). In addition, laser diffraction calculates a particle size distribution based around volume terms, thus eliminating particle count from the determination of particle size. The Masterizer S model measures particles using a single technique and a single range setting.
The values in the table represent averages of two measurements. Each measurement was taken after 3 minutes of recirculation with the speed control at the 14 hour position. The dilution medium was a 1% solution of dioctyl sulfosuccinate sodium salt in n-hexane. The concentration of drug substance used in the measurements was between 0.05% and 0.35% by volume. The results were confirmed with microscopic observation. For optical microscopy, an emulsion or suspension, diluted or undiluted, was mounted on a slide or ruled cell. The microscope eyepiece was fitted with a micrometer by which the size of the particles may be estimated.
D(0.1) is the particle size, in microns, below which 10% by volume distribution of the population is found, and d(0.9) is the particle size, in microns, below which 90% by volume distribution of the population is found. […]

The conditions of series [2]: compared with the microcrystalline form; cited from earlier work.
The conditions of series [3]: 18-year study, subjects, cited from earlier work.

Read-outs that look alike come from different tables or passages of the source.

Take `C#CCN[C@@H]1CCc2ccccc21.CS(=O)(=O)O` [Batch D197/197]: in series [1] (listed as D197/197), the “d (0.1) after milling” value came out at 14 microns, the “d (0.9) after milling” value amounted to 168 microns, the “d (0.1) before milling” value was 21 microns and the “d (0.9) before milling” value is reported as 443 microns.
Take `C#CCN[C@@H]1CCc2ccccc21.CS(=O)(=O)O` [Batch D211/212]: in series [1] (listed as D211/212), the “d (0.1) after milling” value was determined as 16 microns, the “d (0.9) after milling” value is 189 microns, the “d (0.1) before milling” value is recorded as 104 microns and the “d (0.9) before milling” value worked out at 598 microns.
With `O=C1CN(/N=C/c2ccc([N+](=O)[O-])o2)C(=O)N1` [macrocrystalline form of Nitrofurantoin, Nitrofurantoin], in series [2], the “dissolution and absorption rates” value is “slower”; the serum concentrations result is given as “lower”; the “time to achieve peak concentration in urine” value is on record as “takes longer”. Besides, the “negative side effects (adverse events) such as nausea and gastro-intestinal problems” value in series [3] (listed as macrocrystalline form) is on record as “did not manifest”.
For the compound `O=C1CN(/N=C/c2ccc([N+](=O)[O-])o2)C(=O)N1` [microcrystalline form, Nitrofurantoin], the “negative side effects (adverse events) such as nausea and gastro-intestinal problems” value in series [3] is “produces negative side effects”.
In the case of `C#CCN[C@@H]1CCc2ccccc21.CS(=O)(=O)O` [Batch D222/223], in series [1] (listed as D222/223), the “d (0.1) after milling” value was 10 microns, the “d (0.9) after milling” value turned out to be 156 microns, the “d (0.1) before milling” value was found to be 18 microns and the “d (0.9) before milling” value is listed as 573 microns.
In the case of `C#CCN[C@@H]1CCc2ccccc21.CS(=O)(=O)O` [Batch D297/297], in series [1] (listed as D297/297), the “d (0.1) after milling” value is 11 microns, the “d (0.9) after milling” value stood at 160 microns, the “d (0.1) before milling” value amounted to 20 microns and the “d (0.9) before milling” value is listed as 386 microns.

The values above are taken from patent publication US7815942B2, “Rasagiline formulations of improved content uniformity” (Teva Pharmaceutical Industries, Ltd., priority 2005, dated 2010).
